Measured values as given in patent publication US8952024B2, “Herbicidal pyrimidone derivatives” (E I du Pont de Nemours and Company, priority 2009, dated 2015).

Tests used:
Format in all cases: in vivo
[1] = system: barnyardgrass (Echinochloa crus-galli); experiment: Test A pre-/postemergence plant response
Outline: (§1)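 Injury was scored visually after roughly ten days against untreated controls, 0 = no effect, 100 = complete control. Test chemicals in a surfactant-containing non-phytotoxic solvent were sprayed either onto soil preemergence or onto one- to two-leaf, 2–10 cm plants postemergence.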

[2] = system: pigweed (Amaranthus retroflexus); experiment: Test A pre-/postemergence plant response
Outline: as §1

[3] = system: velvetleaf (Abutilon theophrasti); experiment: Test B pre-/postemergence plant response
Outline: (§2)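 Visually scored on a 0 to 100 scale after 13 to 15 days in greenhouse versus controls. Treatments were preemergence on seeded loam/sand soil and postemergence on 1- to 4-leaf plants.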

[4] = system: woolly cupgrass (Eriochloa villosa); experiment: Test B pre-/postemergence plant response
Outline: as §2

[5] = system: yellow nutsedge (Cyperus esculentus); experiment: Test B pre-/postemergence plant response
Outline: as §2

[6] = system: large crabgrass (Digitaria sanguinalis); experiment: Test B pre-/postemergence plant response
Outline: as §2

[7] = system: wheat (Triticum aestivum); experiment: Test B pre-/postemergence plant response
Outline: as §2

[8] = system: goosegrass (Eleusine indica); experiment: Test B pre-/postemergence plant response
Outline: as §2

[9] = system: morningglory (Ipomoea coccinea); experiment: Test B pre-/postemergence plant response
Outline: as §2

[10] = system: downy bromegrass (Bromus tectorum); experiment: Test B pre-/postemergence plant response
Outline: as §2

[11] = system: Surinam grass (Brachiaria decumbens); experiment: Test B pre-/postemergence plant response
Outline: as §2

[12] = system: Italian ryegrass (Lolium multiflorum); experiment: Test B pre-/postemergence plant response
Outline: as §2

[13] = system: blackgrass (Alopecurus myosuroides); experiment: Test B pre-/postemergence plant response
Outline: as §2

[14] = Postemergence, 500 g ai/ha, visual injury, 0 to 100 scale (0 no effect, 100 complete control), approx. ten days
[15] = Preemergence, 125 g ai/ha, 0 to 100 scale where 0 is no effect and 100 is complete control, approximately ten days
[16] = Preemergence, 500 g ai/ha, 0 to 100 scale, 0 = no effect, 100 = complete control
[17] = Postemergence, 31 g ai/ha, 0 to 100 scale (0 no effect, 100 complete control)
[18] = Postemergence, 125 g ai/ha, scale 0 (no effect) to 100 (complete control), 13 to 15 days
[19] = Postemergence, 250 g ai/ha, scale 0 to 100 (0 no effect, 100 complete control), 13 to 15 days
[20] = Postemergence, 62 g ai/ha, scale 0 to 100 (0 no effect, 100 complete control)
[21] = Preemergence, 31 g ai/ha, scale 0 to 100 (0 no effect, 100 complete control)
[22] = Preemergence, 62 g ai/ha, scale 0 to 100, 0 no effect, 100 complete control
[23] = Preemergence, 125 g ai/ha, scale 0 to 100, 0 no effect, 100 complete control
[24] = Preemergence, 250 g ai/ha, 0 to 100 scale

COCCCn1c(-c2cc(F)cc(F)c2)ncc(C(=O)C2=C(O)C3CCC(C3)C2=O)c1=O (stereo not drawn) [Compound 244]
30: Plant response rating, Barnyardgrass [1, 15] | Bromegrass, Downy plant response rating [10, 24]
45: Plant response rating, Cupgrass, Woolly [4, 21] | Plant response rating, Nutsedge, Yellow [5, 17] | Wheat plant response rating [7, 24] | Ryegrass, Italian plant response rating [12, 24]
0: Plant response rating, Wheat [7, 21] | Plant response rating, Wheat [7, 22] | Plant response rating, Bromegrass, Downy [10, 21] | Plant response rating, Bromegrass, Downy [10, 22] | Plant response rating, Ryegrass, Italian [12, 21] | Plant response rating, Ryegrass, Italian [12, 22]
40: Plant response rating, Bromegrass, Downy [10, 17]
90: Plant response rating, Barnyardgrass ([1]; Postemergence, 125 g ai/ha, 0 to 100 scale where 0 is no effect and 100 is complete control) | Plant response rating, Morningglory [9, 17] | Plant response rating, Morningglory [9, 22] | Plant response rating, Surinam Grass [11, 17]
75: Plant response rating, Nutsedge, Yellow [5, 19] | Plant response rating, Bromegrass, Downy [10, 18] | Plant response rating, Surinam Grass [11, 21]
60: Plant response rating, Nutsedge, Yellow [5, 22] | Plant response rating, Wheat [7, 17] | Plant response rating, Ryegrass, Italian [12, 20] | Plant response rating, Blackgrass [13, 20] | Plant response rating, Blackgrass [13, 23]
55: Plant response rating, Cupgrass, Woolly [4, 22]
95: Plant response rating, Cupgrass, Woolly [4, 23] | Nutsedge, Yellow plant response rating [5, 24] | Plant response rating, Wheat [7, 19] | Plant response rating, Goosegrass [8, 20] | Plant response rating, Morningglory [9, 20] | Plant response rating, Surinam Grass [11, 20] | Plant response rating, Ryegrass, Italian [12, 19]
50: Plant response rating, Nutsedge, Yellow [5, 20] | Plant response rating, Bromegrass, Downy [10, 20] | Plant response rating, Blackgrass [13, 17]
35: Plant response rating, Ryegrass, Italian [12, 17] | Plant response rating, Blackgrass [13, 21] | Plant response rating, Blackgrass [13, 22]
80: Plant response rating, Nutsedge, Yellow [5, 23] | Plant response rating, Crabgrass, Large [6, 17] | Plant response rating, Wheat [7, 20] | Plant response rating, Bromegrass, Downy [10, 19] | Plant response rating, Ryegrass, Italian [12, 18]
100: Barnyardgrass plant response rating [1, 14] | Plant response rating, Barnyardgrass [1, 16] | Plant response rating, Pigweed ([2]; Postemergence, 125 g ai/ha, visual injury, 0 to 100 scale (0 no effect, 100 complete control), approx. ten days) | Pigweed plant response rating [2, 14] | Plant response rating, Pigweed [2, 15] | Plant response rating, Pigweed [2, 16] | Plant response rating, Velvetleaf [3, 17] | Plant response rating, Velvetleaf [3, 18] | Plant response rating, Velvetleaf [3, 19] | Plant response rating, Velvetleaf [3, 20] | Plant response rating, Velvetleaf [3, 21] | Plant response rating, Velvetleaf [3, 22] | Plant response rating, Velvetleaf [3, 23] | Velvetleaf plant response rating [3, 24] | Plant response rating, Cupgrass, Woolly [4, 17] | Plant response rating, Cupgrass, Woolly [4, 18] | Plant response rating, Cupgrass, Woolly [4, 19] | Plant response rating, Cupgrass, Woolly [4, 20] | Cupgrass, Woolly plant response rating [4, 24] | Plant response rating, Crabgrass, Large [6, 18] | Plant response rating, Crabgrass, Large [6, 19] | Plant response rating, Crabgrass, Large [6, 20] | Plant response rating, Crabgrass, Large [6, 22] | Plant response rating, Crabgrass, Large [6, 23] | Crabgrass, Large plant response rating [6, 24] | Plant response rating, Goosegrass [8, 22] | Plant response rating, Goosegrass [8, 23] | Goosegrass plant response rating [8, 24] | Plant response rating, Morningglory [9, 18] | Plant response rating, Morningglory [9, 19] | Morningglory plant response rating [9, 24] | Plant response rating, Surinam Grass [11, 18] | Plant response rating, Surinam Grass [11, 19] | Plant response rating, Surinam Grass [11, 22] | Plant response rating, Surinam Grass [11, 23] | Surinam Grass plant response rating [11, 24]
5: Plant response rating, Wheat [7, 23] | Plant response rating, Bromegrass, Downy [10, 23] | Plant response rating, Ryegrass, Italian [12, 23]
65: Plant response rating, Nutsedge, Yellow [5, 18] | Plant response rating, Blackgrass [13, 18]
20: Plant response rating, Nutsedge, Yellow [5, 21]
98: Plant response rating, Crabgrass, Large [6, 21] | Plant response rating, Goosegrass [8, 18] | Plant response rating, Goosegrass [8, 19] | Plant response rating, Goosegrass [8, 21] | Plant response rating, Morningglory [9, 23]
70: Blackgrass plant response rating [13, 24]
85: Plant response rating, Wheat [7, 18] | Plant response rating, Goosegrass [8, 17] | Plant response rating, Morningglory [9, 21] | Plant response rating, Blackgrass [13, 19]
